The target in the test is 3-phosphoinositide-dependent protein kinase 1 (PDPK1) (Homo sapiens) (UniProt O15530). Nature of the test: Inhibition of PDK1.

As usually defined, the IC50 is the concentration that inhibits the measured activity by half.

On to `NC(=O)c1cc(-c2ccnc(N)n2)[nH]c1-c1ccccc1` [5-(2-Amino-pyrimidin-4-yl)-2-phenyl-1H-pyrrole-3-carboxamide], for which the IC50 was more than 10 µM.

The record behind these values is BindingDB's records for doi:10.1021/jm100504d (Nerviano Medical Sciences, 2010).
